Results published in article PMC10700596 (Nature Communications, 2023).
Several values for one entry are separate records, joined by “and”; a condition that tells them apart may be missing. Equal entries are not always repeated.

How the values were obtained:
320 GPCRs [1] = target: 320 GPCRs (Homo sapiens, UniProt O00254); assay type: cell-based
320 GPCRs [2] = target: 320 GPCRs (Homo sapiens, UniProt P21453); assay type: cell-based
320 GPCRs [3] = target: 320 GPCRs (Homo sapiens, UniProt P51685); assay type: cell-based
320 GPCRs [4] = target: 320 GPCRs (Homo sapiens, UniProt Q7Z601); assay type: cell-based
320 GPCRs [5] = target: 320 GPCRs (Homo sapiens, UniProt Q8NFJ6); assay type: cell-based
320 GPCRs [6] = target: 320 GPCRs (Homo sapiens, UniProt Q96G91); assay type: cell-based
[7] = target: ABL1(E255K)-phosphorylated (Homo sapiens, UniProt P00519, E255K); test: biochemical; assay type: binding; conditions: 10000 nM; read-out: Percent Control
From the text: (§1) . […] This panel includes several adverse drug reaction receptors such as the serotonin receptor 5HT2b, M1 and M2 muscarinic receptors and adrenergic receptors. […]. page 7:
(§2) Supplementary Figure 7: Non-GPCR off-target screening for 74. a)-e) Dose-response curves of 74 at […]
(§3) proliferator-activated receptor gamma (PPARγ, Eurofins item G124). Data in a)-e) and g)-i) represent two technical replicates. Source data are provided as a Source Data file.
(§4) (1 picture or pasted object on this page, not shown here)

ACVR1B = ACVR1B (Homo sapiens, UniProt P36896); test: biochemical; assay type: binding; conditions: 10000 nM; read-out: Percent Control
From the text: as §1, §2, §3, §4

ADCK3 = ADCK3 (Homo sapiens, UniProt Q8NI60); test: biochemical; assay type: binding; conditions: 10000 nM; read-out: Percent Control
From the text: as §1, §2, §3, §4

AKT1 = AKT1 (Homo sapiens, UniProt P31749); test: biochemical; assay type: binding; conditions: 10000 nM; read-out: Percent Control
From the text: as §1, §2, §3, §4

AKT2 = AKT2 (Homo sapiens, UniProt P31751); test: biochemical; assay type: binding; conditions: 10000 nM; read-out: Percent Control
From the text: as §1, §2, §3, §4

BRAF = BRAF (Homo sapiens, UniProt P15056); test: biochemical; assay type: binding; conditions: 10000 nM; read-out: Percent Control
From the text: as §1, §2, §3, §4

BTK = BTK (Homo sapiens, UniProt Q06187); test: biochemical; assay type: binding; conditions: 10000 nM; read-out: Percent Control
From the text: as §1, §2, §3, §4

CDK11 = CDK11 (Homo sapiens, UniProt Q9BWU1); test: biochemical; assay type: binding; conditions: 10000 nM; read-out: Percent Control
From the text: as §1, §2, §3, §4

CDK2 = CDK2 (Homo sapiens, UniProt P24941); test: biochemical; assay type: binding; conditions: 10000 nM; read-out: Percent Control
From the text: as §1, §2, §3, §4

CDK7 = CDK7 (Homo sapiens, UniProt P50613); test: biochemical; assay type: binding; conditions: 10000 nM; read-out: Percent Control
From the text: as §1, §2, §3, §4

CHEK1 = CHEK1 (Homo sapiens, UniProt O14757); test: biochemical; assay type: binding; conditions: 10000 nM; read-out: Percent Control
From the text: as §1, §2, §3, §4

DCAMKL1 = DCAMKL1 (Homo sapiens, UniProt O15075); test: biochemical; assay type: binding; conditions: 10000 nM; read-out: Percent Control
From the text: as §1, §2, §3, §4

DYRK1B = DYRK1B (Homo sapiens, UniProt Q9Y463); test: biochemical; assay type: binding; conditions: 10000 nM; read-out: Percent Control
From the text: as §1, §2, §3, §4

EGFR = EGFR (Homo sapiens, UniProt P00533); test: biochemical; assay type: binding; conditions: 10000 nM; read-out: Percent Control
From the text: as §1, §2, §3, §4

EGFR(L858R) = EGFR(L858R) (Homo sapiens, UniProt P00533, L858R); test: biochemical; assay type: binding; conditions: 10000 nM; read-out: Percent Control
From the text: as §1, §2, §3, §4

ERK1 = ERK1 (Homo sapiens, UniProt P27361); test: biochemical; assay type: binding; conditions: 10000 nM; read-out: Percent Control
From the text: as §1, §2, §3, §4

FAK = FAK (Homo sapiens, UniProt Q05397); test: biochemical; assay type: binding; conditions: 10000 nM; read-out: Percent Control
From the text: as §1, §2, §3, §4

FGFR2 = FGFR2 (Homo sapiens, UniProt P21802); test: biochemical; assay type: binding; conditions: 10000 nM; read-out: Percent Control
From the text: as §1, §2, §3, §4

GSK3B = GSK3B (Homo sapiens, UniProt P49841); test: biochemical; assay type: binding; conditions: 10000 nM; read-out: Percent Control
From the text: as §1, §2, §3, §4

IKK-alpha = IKK-alpha (Homo sapiens, UniProt O15111); test: biochemical; assay type: binding; conditions: 10000 nM; read-out: Percent Control
From the text: as §1, §2, §3, §4

INSR = INSR (Homo sapiens, UniProt P06213); test: biochemical; assay type: binding; conditions: 10000 nM; read-out: Percent Control
From the text: as §1, §2, §3, §4

JNK1 = JNK1 (Homo sapiens, UniProt P45983); test: biochemical; assay type: binding; conditions: 10000 nM; read-out: Percent Control
From the text: as §1, §2, §3, §4

MET = MET (Homo sapiens, UniProt P08581); test: biochemical; assay type: binding; conditions: 10000 nM; read-out: Percent Control
From the text: as §1, §2, §3, §4

PDPK1 = PDPK1 (Homo sapiens, UniProt O15530); test: biochemical; assay type: binding; conditions: 10000 nM; read-out: Percent Control
From the text: as §1, §2, §3, §4

PIK3CA = PIK3CA (Homo sapiens, UniProt P42336); test: biochemical; assay type: binding; conditions: 10000 nM; read-out: Percent Control
From the text: as §1, §2, §3, §4

PIK3CG = PIK3CG (Homo sapiens, UniProt P48736); test: biochemical; assay type: binding; conditions: 10000 nM; read-out: Percent Control
From the text: as §1, §2, §3, §4

PIM1 = PIM1 (Homo sapiens, UniProt P11309); test: biochemical; assay type: binding; conditions: 10000 nM; read-out: Percent Control
From the text: as §1, §2, §3, §4

PRKCE = PRKCE (Homo sapiens, UniProt Q02156); test: biochemical; assay type: binding; conditions: 10000 nM; read-out: Percent Control
From the text: as §1, §2, §3, §4

ROCK2 = ROCK2 (Homo sapiens, UniProt O75116); test: biochemical; assay type: binding; conditions: 10000 nM; read-out: Percent Control
From the text: as §1, §2, §3, §4

SRC = SRC (Homo sapiens, UniProt P12931); test: biochemical; assay type: binding; conditions: 10000 nM; read-out: Percent Control
From the text: as §1, §2, §3, §4

SRPK3 = SRPK3 (Homo sapiens, UniProt Q9UPE1); test: biochemical; assay type: binding; conditions: 10000 nM; read-out: Percent Control
From the text: as §1, §2, §3, §4

TRKA = TRKA (Homo sapiens, UniProt P04629); test: biochemical; assay type: binding; conditions: 10000 nM; read-out: Percent Control
From the text: as §1, §2, §3, §4

ULK2 = ULK2 (Homo sapiens, UniProt Q8IYT8); test: biochemical; assay type: binding; conditions: 10000 nM; read-out: Percent Control
From the text: as §1, §2, §3, §4

YANK3 = YANK3 (Homo sapiens, UniProt Q86UX6); test: biochemical; assay type: binding; conditions: 10000 nM; read-out: Percent Control
From the text: as §1, §2, §3, §4

ZAP70 = ZAP70 (Homo sapiens, UniProt P43403); test: biochemical; assay type: binding; conditions: 10000 nM; read-out: Percent Control
From the text: as §1, §2, §3, §4

p38-alpha = p38-alpha (Homo sapiens, UniProt Q16539); test: biochemical; assay type: binding; conditions: 10000 nM; read-out: Percent Control
From the text: as §1, §2, §3, §4

Chain of 320 GPCRs (Homo sapiens, UniProt Q96G91) (Q96G91 whole entry): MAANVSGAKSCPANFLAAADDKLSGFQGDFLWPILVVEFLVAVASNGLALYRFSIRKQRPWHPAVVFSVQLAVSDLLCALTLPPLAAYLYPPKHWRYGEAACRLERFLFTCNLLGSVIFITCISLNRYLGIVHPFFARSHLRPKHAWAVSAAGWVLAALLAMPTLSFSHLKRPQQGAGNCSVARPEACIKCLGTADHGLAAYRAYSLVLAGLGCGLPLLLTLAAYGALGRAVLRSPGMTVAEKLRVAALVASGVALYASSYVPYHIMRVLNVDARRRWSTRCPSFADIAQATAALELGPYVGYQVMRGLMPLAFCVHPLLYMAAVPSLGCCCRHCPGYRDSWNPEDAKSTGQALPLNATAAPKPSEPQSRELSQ
Chain of 320 GPCRs (Homo sapiens, UniProt P51685) (P51685 whole entry): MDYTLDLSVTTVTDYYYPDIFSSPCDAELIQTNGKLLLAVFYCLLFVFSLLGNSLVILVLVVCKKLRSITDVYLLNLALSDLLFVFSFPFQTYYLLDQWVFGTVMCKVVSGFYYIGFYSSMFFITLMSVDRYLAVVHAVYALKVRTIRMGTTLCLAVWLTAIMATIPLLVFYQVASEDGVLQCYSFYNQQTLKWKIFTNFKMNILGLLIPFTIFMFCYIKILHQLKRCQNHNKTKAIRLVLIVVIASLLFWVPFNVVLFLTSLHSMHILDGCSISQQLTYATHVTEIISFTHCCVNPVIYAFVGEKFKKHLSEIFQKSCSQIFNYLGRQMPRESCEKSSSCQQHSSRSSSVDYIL
Chain of 320 GPCRs (Homo sapiens, UniProt O00254) (O00254 22-374): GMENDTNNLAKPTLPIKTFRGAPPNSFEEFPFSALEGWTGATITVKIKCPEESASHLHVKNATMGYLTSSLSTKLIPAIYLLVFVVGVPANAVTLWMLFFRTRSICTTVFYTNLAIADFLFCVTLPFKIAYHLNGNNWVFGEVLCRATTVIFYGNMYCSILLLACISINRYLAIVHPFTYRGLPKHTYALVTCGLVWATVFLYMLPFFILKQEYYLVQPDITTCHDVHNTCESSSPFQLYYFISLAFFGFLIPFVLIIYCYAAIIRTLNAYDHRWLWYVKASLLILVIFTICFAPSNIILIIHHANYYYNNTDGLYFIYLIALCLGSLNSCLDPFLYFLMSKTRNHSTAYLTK
Chain of 320 GPCRs (Homo sapiens, UniProt Q8NFJ6) (Q8NFJ6 whole entry): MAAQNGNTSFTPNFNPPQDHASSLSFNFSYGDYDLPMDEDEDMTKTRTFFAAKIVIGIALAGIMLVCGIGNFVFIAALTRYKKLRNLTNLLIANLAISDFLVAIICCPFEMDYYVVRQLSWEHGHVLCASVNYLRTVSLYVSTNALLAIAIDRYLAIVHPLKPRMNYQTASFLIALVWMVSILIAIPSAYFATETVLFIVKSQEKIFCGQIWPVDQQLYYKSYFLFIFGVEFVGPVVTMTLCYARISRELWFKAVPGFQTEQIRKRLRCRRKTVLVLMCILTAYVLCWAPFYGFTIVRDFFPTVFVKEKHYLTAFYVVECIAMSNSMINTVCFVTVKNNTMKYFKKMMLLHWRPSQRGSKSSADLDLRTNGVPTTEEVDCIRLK
Chain of 320 GPCRs (Homo sapiens, UniProt P21453) (P21453 whole entry): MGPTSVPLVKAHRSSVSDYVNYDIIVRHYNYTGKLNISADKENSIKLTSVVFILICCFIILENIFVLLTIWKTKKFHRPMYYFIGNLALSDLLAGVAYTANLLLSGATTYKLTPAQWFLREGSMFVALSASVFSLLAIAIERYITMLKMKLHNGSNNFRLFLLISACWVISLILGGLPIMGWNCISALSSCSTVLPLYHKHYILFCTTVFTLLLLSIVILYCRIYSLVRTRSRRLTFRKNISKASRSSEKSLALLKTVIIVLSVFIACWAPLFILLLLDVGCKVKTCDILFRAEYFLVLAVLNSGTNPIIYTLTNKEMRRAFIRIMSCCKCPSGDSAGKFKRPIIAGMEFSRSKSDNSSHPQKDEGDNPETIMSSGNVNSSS
Chain of 320 GPCRs (Homo sapiens, UniProt Q7Z601) (Q7Z601 whole entry): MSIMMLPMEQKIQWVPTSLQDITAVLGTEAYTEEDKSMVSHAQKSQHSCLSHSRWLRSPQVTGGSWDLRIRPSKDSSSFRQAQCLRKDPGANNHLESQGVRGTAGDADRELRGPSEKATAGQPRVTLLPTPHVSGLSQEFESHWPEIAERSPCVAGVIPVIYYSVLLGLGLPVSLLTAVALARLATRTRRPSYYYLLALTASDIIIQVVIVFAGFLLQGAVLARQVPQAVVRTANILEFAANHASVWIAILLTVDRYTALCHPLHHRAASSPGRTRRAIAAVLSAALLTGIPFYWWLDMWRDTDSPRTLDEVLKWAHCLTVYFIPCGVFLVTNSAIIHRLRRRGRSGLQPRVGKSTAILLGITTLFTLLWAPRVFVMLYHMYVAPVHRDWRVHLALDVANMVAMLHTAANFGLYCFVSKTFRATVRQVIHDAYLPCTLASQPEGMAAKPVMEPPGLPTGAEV
Chain of SRC (P12931 whole entry): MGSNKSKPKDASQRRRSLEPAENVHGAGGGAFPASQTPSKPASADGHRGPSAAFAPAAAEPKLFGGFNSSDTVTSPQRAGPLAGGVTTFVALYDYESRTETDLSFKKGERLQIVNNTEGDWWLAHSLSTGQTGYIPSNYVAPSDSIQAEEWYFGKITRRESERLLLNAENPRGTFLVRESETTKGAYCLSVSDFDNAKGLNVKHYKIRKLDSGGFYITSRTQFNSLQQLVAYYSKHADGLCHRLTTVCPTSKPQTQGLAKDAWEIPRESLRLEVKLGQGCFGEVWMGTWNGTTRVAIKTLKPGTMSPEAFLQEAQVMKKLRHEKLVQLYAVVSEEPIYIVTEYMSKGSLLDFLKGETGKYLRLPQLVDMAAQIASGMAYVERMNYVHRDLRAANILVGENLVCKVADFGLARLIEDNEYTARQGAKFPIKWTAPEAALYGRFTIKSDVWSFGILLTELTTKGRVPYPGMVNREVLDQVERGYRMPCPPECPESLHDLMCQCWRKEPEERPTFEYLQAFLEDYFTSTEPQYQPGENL
Chain of ULK2 (Q8IYT8 whole entry): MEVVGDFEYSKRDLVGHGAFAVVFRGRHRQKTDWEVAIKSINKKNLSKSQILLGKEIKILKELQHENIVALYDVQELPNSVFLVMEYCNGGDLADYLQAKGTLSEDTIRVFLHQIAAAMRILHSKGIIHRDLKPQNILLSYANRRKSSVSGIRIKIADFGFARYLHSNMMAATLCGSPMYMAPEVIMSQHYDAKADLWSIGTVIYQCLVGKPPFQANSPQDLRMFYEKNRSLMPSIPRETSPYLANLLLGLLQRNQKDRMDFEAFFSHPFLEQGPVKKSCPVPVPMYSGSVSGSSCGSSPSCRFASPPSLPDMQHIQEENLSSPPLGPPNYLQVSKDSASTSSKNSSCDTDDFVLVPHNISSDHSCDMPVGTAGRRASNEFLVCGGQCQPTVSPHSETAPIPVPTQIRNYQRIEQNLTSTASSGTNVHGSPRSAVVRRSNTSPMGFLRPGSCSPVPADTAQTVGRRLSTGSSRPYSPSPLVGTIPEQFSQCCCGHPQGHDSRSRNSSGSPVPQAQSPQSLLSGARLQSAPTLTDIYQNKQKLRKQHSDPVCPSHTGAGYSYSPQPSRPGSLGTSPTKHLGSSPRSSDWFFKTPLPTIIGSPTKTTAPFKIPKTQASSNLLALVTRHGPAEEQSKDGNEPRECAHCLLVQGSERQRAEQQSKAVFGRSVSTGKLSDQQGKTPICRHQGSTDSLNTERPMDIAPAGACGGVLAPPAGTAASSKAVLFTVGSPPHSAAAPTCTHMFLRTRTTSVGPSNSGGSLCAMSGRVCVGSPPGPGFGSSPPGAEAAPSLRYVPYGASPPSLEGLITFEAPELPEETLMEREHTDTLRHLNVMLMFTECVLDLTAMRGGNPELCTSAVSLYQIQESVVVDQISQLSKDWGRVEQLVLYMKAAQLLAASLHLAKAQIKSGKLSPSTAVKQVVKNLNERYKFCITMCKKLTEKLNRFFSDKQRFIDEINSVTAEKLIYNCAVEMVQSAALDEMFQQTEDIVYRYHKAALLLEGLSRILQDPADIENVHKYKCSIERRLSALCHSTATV
Chain of IKK-alpha (O15111 whole entry): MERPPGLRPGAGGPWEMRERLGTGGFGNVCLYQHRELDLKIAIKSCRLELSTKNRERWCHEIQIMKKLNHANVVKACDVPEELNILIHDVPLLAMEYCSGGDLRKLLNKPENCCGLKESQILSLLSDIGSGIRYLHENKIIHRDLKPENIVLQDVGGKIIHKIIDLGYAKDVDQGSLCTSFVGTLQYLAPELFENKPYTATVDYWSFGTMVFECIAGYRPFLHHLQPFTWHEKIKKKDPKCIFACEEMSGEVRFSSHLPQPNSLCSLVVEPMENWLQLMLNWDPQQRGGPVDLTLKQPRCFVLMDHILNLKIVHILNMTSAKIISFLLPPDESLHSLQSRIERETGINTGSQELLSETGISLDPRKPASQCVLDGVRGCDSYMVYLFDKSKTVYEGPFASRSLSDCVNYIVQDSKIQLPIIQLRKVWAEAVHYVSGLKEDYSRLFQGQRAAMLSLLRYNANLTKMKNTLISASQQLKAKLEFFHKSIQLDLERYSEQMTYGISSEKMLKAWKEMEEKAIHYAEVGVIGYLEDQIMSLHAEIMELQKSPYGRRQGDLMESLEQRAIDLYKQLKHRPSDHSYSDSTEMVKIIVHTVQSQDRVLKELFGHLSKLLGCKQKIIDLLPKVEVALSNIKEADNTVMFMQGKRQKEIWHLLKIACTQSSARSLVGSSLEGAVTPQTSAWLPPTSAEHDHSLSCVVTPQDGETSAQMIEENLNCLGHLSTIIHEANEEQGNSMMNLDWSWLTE
Chain of PIM1 (P11309 whole entry): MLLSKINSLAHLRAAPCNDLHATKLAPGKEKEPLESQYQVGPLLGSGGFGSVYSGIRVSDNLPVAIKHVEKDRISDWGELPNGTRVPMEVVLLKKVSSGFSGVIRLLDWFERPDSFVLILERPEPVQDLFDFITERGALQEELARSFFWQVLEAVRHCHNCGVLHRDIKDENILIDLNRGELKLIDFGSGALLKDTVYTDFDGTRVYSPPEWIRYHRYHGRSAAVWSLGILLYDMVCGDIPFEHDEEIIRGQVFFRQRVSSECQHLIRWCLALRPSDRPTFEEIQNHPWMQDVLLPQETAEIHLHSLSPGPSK

Structure (SMILES): O=C(O)C1CCC2(CC1)CC(Nc1ncnc3[nH]c4c(F)cccc4c13)C2 (stereo not drawn) [Compound 74, OC(=O)C1CCC2(CC(C2)NC=3N=CN=C4NC=5C(F)=CC=CC5C34)CC1]
- RLU (Fold over Basal) (320 GPCRs [1]): 2 Fold over Basal and 1.8 Fold over Basal and 3 Fold over Basal and 2.4 Fold over Basal
- RLU (Fold over Basal) (320 GPCRs [2]): 1 Fold over Basal and 1.6 Fold over Basal and 1.5 Fold over Basal
- RLU (Fold over Basal) (320 GPCRs [3]): 1.6 Fold over Basal and 1.2 Fold over Basal and 0.8 Fold over Basal and 1.5 Fold over Basal
- RLU (Fold over Basal) (320 GPCRs [4]): 0.6 Fold over Basal and 1 Fold over Basal
- RLU (Fold over Basal) (320 GPCRs [5]): 0.7 Fold over Basal and 1.4 Fold over Basal and 1.3 Fold over Basal and 1.1 Fold over Basal
- RLU (Fold over Basal) (320 GPCRs [6]): 1 Fold over Basal and 0.7 Fold over Basal and 1.1 Fold over Basal and 1.4 Fold over Basal
- remaining activity at 10 µM [7]: 57%
- remaining activity at 10 µM (ACVR1B): 55%
- remaining activity at 10 µM (ADCK3): 85%
- remaining activity at 10 µM (AKT1): 100%
- remaining activity at 10 µM (AKT2): 74%
- remaining activity at 10 µM (BRAF): 86%
- remaining activity at 10 µM (BTK): 67%
- remaining activity at 10 µM (CDK11): 46%
- remaining activity at 10 µM (CDK2): 96%
- remaining activity at 10 µM (CDK7): 62%
- remaining activity at 10 µM (CHEK1): 100%
- remaining activity at 10 µM (DCAMKL1): 78%
- remaining activity at 10 µM (DYRK1B): 74%
- remaining activity at 10 µM (EGFR): 96%
- remaining activity at 10 µM (EGFR(L858R)): 84%
- remaining activity at 10 µM (ERK1): 100%
- remaining activity at 10 µM (FAK): 97%
- remaining activity at 10 µM (FGFR2): 71%
- remaining activity at 10 µM (GSK3B): 82%
- remaining activity at 10 µM (IKK-alpha): 42%
- remaining activity at 10 µM (INSR): 90%
- remaining activity at 10 µM (JNK1): 35%
- remaining activity at 10 µM (MET): 100%
- remaining activity at 10 µM (PDPK1): 64%
- remaining activity at 10 µM (PIK3CA): 64%
- remaining activity at 10 µM (PIK3CG): 3.5%
- remaining activity at 10 µM (PIM1): 72%
- remaining activity at 10 µM (PRKCE): 57%
- remaining activity at 10 µM (ROCK2): 59%
- remaining activity at 10 µM (SRC): 88%
- remaining activity at 10 µM (SRPK3): 67%
- remaining activity at 10 µM (TRKA): 11%
- remaining activity at 10 µM (ULK2): 54%
- remaining activity at 10 µM (YANK3): 62%
- remaining activity at 10 µM (ZAP70): 75%
- remaining activity at 10 µM (p38-alpha): 87%
